This data set has as its system Human ovarian cancer cell line SKOV-3. Nature of the data set: In vitro cytotoxicity, SKOV-3 cell viability (PrestoBlue). To be noted: for cytotoxicity compared with 1 (MMAF): SKOV-3, applied to the cell culture medium; for cytotoxicity compared with 2 (monomethyldolastatin 10): SKOV-3.
Where [1] appears, read: SKOV-3, 96 h, concentration range wherein viability falls to 50%, measured range 1 nM-10 μM.

Where a SMILES comes first, the peptide text is derived from it. [ ]: non-standard residue; d: D form. The star is where a group is joined. Dolaproine = CO[C@@H]([C@@H]1CCCN1)[C@@H](C)C(=O)O; Dil = CC[C@H](C)[C@H](NC)[C@@H](CC(=O)O)OC; Doe = c1ccc(C[C@H](N*)c2nccs2)cc1; NMeV = CN[C@H](C(=O)O)C(C)C

Broadly, the IC50 is the midpoint of a concentration-inhibition curve. Low values mean inhibition by little substance, high ones a need for much substance.

Procedure: Human ovarian cancer cell line SKOV-3 was from the ATCC (Manassas, Va., USA). The cells were grown according to the manufacturer's recommendations. Log phase cultures were collected and 5000 cells/well were seeded onto 96-well plates and incubated for 24 h. Serial dilutions of test molecules from a stock solution of 100 μM in 10% DMSO were made in cell culture medium, added to cells (maximum concentration of dimethylsulphoxide was 1%) and cultures were incubated further for 96 h. Cell viability was evaluated using PrestoBlue cell viability reagent (Life Technologies, Carlsbad, Calif., USA) according to the manufacturer's instructions. Cells were incubated for 2 h, and dye reduction was measured by absorbance at 570 nm. The compounds were assayed 1-2 times in triplicate.

For the compound `CC[C@H](C)[C@@H]([C@@H](CC(=O)N1CCC[C@H]1[C@H](OC)[C@@H](C)C(=O)N[C@@H](Cc1ccccc1)C(=O)O)OC)N(C)C(=O)[C@@H](NC(=O)[C@@H](NC)C(C)C)C(C)C` [Compound 1, Monomethylauristatin F, reference compound] (HELM PEPTIDE1{[meV].V.[CC[C@H](C)[C@@H]([C@@H](CC(=O)[*:2])OC)N(C)[*:1]].[CO[C@H]([C@@H](C)C(=O)[*:2])[C@@H]1CCCN1[*:1]].F}$$$$V2.0), the IC50 under setting [1] lay within 100 to 1000 nM. In turn, `CC[C@H](C)[C@@H]([C@@H](CC(=O)N1CCC[C@H]1[C@H](OC)[C@@H](C)C(=O)N[C@@H](Cc1ccccc1)c1nccs1)OC)N(C)C(=O)[C@@H](NC(=O)[C@@H](NC)C(C)C)C(C)C` [Compound 2, monomethyldolastatin 10, reference compound] (H-[NMeV]V[Dil][Dolaproine]-Doe) yielded a half-maximal inhibitory concentration (IC50) under setting [1] of less than 1 nM. As for `CCC(C)C(C(CC(=O)N1CCCC1C(OC)C(C)C(=O)NC(Cc1ccccc1)C(=O)O)OC)N(C)C(=O)C(NC(=O)C(C(C)C)N(C)CCC(O)C(O)C(O)CO)C(C)C` [Compound 5, N-(2-deoxy-D-glucosyl)-MMAF], the “cytotoxicity compared with 1 (MMAF)” value is “equally or only slightly less cytotoxic”. The same compound yielded a 50% inhibitory concentration (IC50) (Homo sapiens, SK-OV-3, 96 h) of 1000 nM. As to `C#CCCN(C)C(C(=O)NC(C(=O)N(C)C(C(C)CC)C(CC(=O)N1CCCC1C(OC)C(C)C(=O)NC(Cc1ccccc1)C(=O)O)OC)C(C)C)C(C)C` (centres unmarked) [Compound 6, N-(3-butynyl)-MMAF], the “cytotoxicity compared with 1 (MMAF)” value is “more cytotoxic”. For the setting “Homo sapiens, SK-OV-3, 96 h”, this compound returned an IC50 of less than 1 nM. On to `CCC(C)C(C(CC(=O)N1CCCC1C(OC)C(C)C(=O)NC(Cc1ccccc1)C(=O)O)OC)N(C)C(=O)C(NC(=O)C(C(C)C)N(C)CC(O)C(O)C(O)C(O)COC1OC(CO)C(O)C(O)C1O)C(C)C` [Compound 8, N-[6-O-(β-D-galactopyranosyl)-D-galactosyl]-MMAF], for which the “cytotoxicity compared with 1 (MMAF)” value is on record as “less cytotoxic”. Further, the half-maximal inhibitory concentration (IC50) (Homo sapiens, SK-OV-3, 96 h) is 1000 to 10000 nM.

In the case of `CCC(C)C(C(CC(=O)N1CCCC1C(OC)C(C)C(=O)NC(Cc1ccccc1)C(=O)O)OC)N(C)C(=O)C(NC(=O)C(C(C)C)N(C)CC(O)C(O)C(OC1OC(CO)C(OC2OC(CO)C(O)C(O)C2O)C(O)C1O)C(O)CO)C(C)C` [Compound 10, N-{4-O-[4-O-(α-D-galactopyranosyl)-β-D-galactopyranosyl]-D-glucosyl}-MMAF], under “Homo sapiens, SK-OV-3, 96 h”, the IC50 lay in the range of 1000 to 10000 nM. In the case of `CCC(C)C(C(CC(=O)N1CCCC1C(OC)C(C)C(=O)NC(Cc1ccccc1)C(=O)O)OC)N(C)C(=O)C(NC(=O)C(C(C)C)N(C)CC(O)C(O)C(OC1OC(CO)C(O)C(OC2(C(=O)O)CC(O)C(NC(C)=O)C(C(O)C(O)CO)O2)C1O)C(O)CO)C(C)C` [Compound 11, N-{4-O-[3-O-(α-N-acetylneuraminyl)-β-D-galactopyranosyl]-D-glucosyl}-MMAF], the “cytotoxicity compared with 1 (MMAF)” value was “less cytotoxic”. Where the note is “Homo sapiens, SK-OV-3, 96 h”, the IC50 is more than 10000 nM. Take `CCC(C)C(C(CC(=O)N1CCCC1C(OC)C(C)C(=O)NC(Cc1ccccc1)c1nccs1)OC)N(C)C(=O)C(NC(=O)C(C(C)C)N(C)CC(O)C(O)C(O)C(O)CN=[N+]=[N-])C(C)C` [Compound 13, N-(6-azido-6-deoxy-D-galactosyl)-dolastatin 10]: the “cytotoxicity compared with 2 (monomethyldolastatin 10)” value is on record as “equally or only slightly less cytotoxic”. Besides, the IC50 (Homo sapiens, SK-OV-3, 96 h) is less than 1 nM. “N-(6-O-propargyl-D-galactosyl)-MMAF [Compound 3]”: the IC50 under setting [1] was in the range of 100 to 10000 nM. Compound “N-(6-azido-6-deoxy-D-galactosyl)-MMAF [Compound 4]” came in with a 50% inhibitory concentration (IC50) under setting [1] of 100 to 1000 nM.

As for N-glutaryl-MMAF [Compound 14b], the “cytotoxicity compared with 2 (monomethyldolastatin 10)” value is recorded as “equally or only slightly less cytotoxic”. The compound also displayed an IC50 under setting [1] of 100 to 1000 nM.

(Values after patent publication US20150314007A1, “LINKER-PAYLOAD MOLECULE CONJUGATES” (GLYKOS FINLAND OY, priority 2012, published 2015).)
